23 molecules from patent publication US20110136792A1, “NOVEL CARBOXYLIC ACID ANALOGS AS GLYCOGEN SYNTHASE ACTIVATORS” (priority 2009, published 2011) can be followed below.

In this assay the test system is glycogen synthase. Kind of assay: Glycogen Synthase (GS) Assay. It is filed as biochemical. As to conditions: coupled pyruvate kinase/lactate dehydrogenase assay, absorbance at 340 nm; for EC50: compound concentration needed to give 50% maximum activation; for GS SC200: compound concentration needed to stimulate 200% of the enzyme activity. On the procedure:
The following tests were carried out in order to determine the activity of the compounds of formula (I).
Twelve μL per well of substrate solution containing glycogen (4.32 mg/ml), 2.67 mM UDP-glucose, 21.6 mM phospho(enol)pyruvate and 2.7 mM NADH in 30 mM glycylglycine, pH 7.3 buffer was added into a polystyrene 384-well assay plate (BD Biosciences).
Compound solutions (8 μL/well) at various concentrations (0-300 μM) were added to the assay plate (columns 5-24). Compound solution contains 30 mM glycylglycine, pH 7.3, 40 mM KCl, 20 mM MgCl2, 9.2% DMSO, with (columns 15-24) or without (columns 5-14) 20 mM glucose 6-phosphate.
Enzyme solution (12 μL/well) containing glycogen synthase (16.88 μg/ml), pyruvate kinase (0.27 mg/ml), lactate dehydrogenase (0.27 mg/ml) in 50 mM Tris-HCl, pH 8.0, 27 mM DTT and bovine serum albumin (BSA, 0.2 mg/ml) was added to the assay plate (columns 3-24). As a blank control, enzyme solution without glycogen synthase was added into the top half wells of columns 1-2. To the bottom half wells of columns 1-2 were added a known activator, glucose 6-phosphate (at final concentration 5 mM) in addition to the enzyme solution. The reaction mixture was incubated at room temperature. The assay plate was then read for absorbance at 340 nm on an Envision reader every 3 minutes up to a total of 15 minutes.
The enzyme activity (with or without compound) was calculated by the reaction rate and represented by the optical density change (δOD) per minute. Percent stimulation of glycogen synthase activity by a compound at various concentrations was calculated by the following formula: […]
Where Rs is the reaction rate of the enzyme in the presence of compound and Rt is the reaction rate of the enzyme in the absence of compound.
SC200 is defined as the compound concentration that is needed to stimulate 200% of the enzyme activity. EC50 is defined as the compound concentration that is needed to give 50% maximum activation.
Compounds from Examples 1 through Example 64 were assayed according to assay procedures described above and the result is listed in Table 1 below: […]

With `COc1cc(F)c(F)cc1-c1ccc(OCc2cccc(CN(CC(=O)O)C(=O)[C@H]3CCCO3)c2)cc1` [Example 33, [[3-(4′,5′-Difluoro-2′-methoxy-biphenyl-4-yloxymethyl)-benzyl]-((R)-tetrahydro-furan-2-carbonyl)-amino]-acetic acid], the concentration giving a half-maximal response (EC50) (usually the concentration that produces a half-maximal response) was found to be 350 nM and the “GS SC200” value was 0.02 µM.

As for `COc1cc(F)c(F)cc1-c1ccc(OCc2cccc(CN(CC(=O)O)C(=O)C3CCOC3)c2)cc1` (stereo not shown) [Example 34, [[3-(4′,5′-Difluoro-2′-methoxy-biphenyl-4-yloxymethyl)-benzyl]-(tetrahydro-furan-3-carbonyl)-amino]-acetic acid], a half-maximal response (EC50) required 280 nM and the “GS SC200” value was 0.04 µM.

`COc1cc(F)c(F)cc1-c1ccc(OCc2cccc(CN(CC(=O)O)Cc3ccccc3)c2)cc1` [Example 35, {Benzyl-[3-(4′,5′-difluoro-2′-methoxy-biphenyl-4-yloxymethyl)-benzyl]-amino}-acetic acid]: the concentration for a half-maximal effect (EC50) was 1460 nM and the “GS SC200” value worked out at 0.46 µM.

Regarding `CCN(CC(=O)O)Cc1cccc(COc2ccc(-c3cc(F)c(F)cc3OC)cc2)c1` [Example 36, {[3-(4′,5′-Difluoro-2′-methoxy-biphenyl-4-yloxymethyl)-benzyl]-ethyl-amino}-acetic acid], it took 1930 nM to reach a half-maximal effect (EC50) and the “GS SC200” value is 0.50 µM.

On to `COc1cc(F)c(F)cc1-c1ccc(OCc2cccc(CNCC(=O)O)c2)cc1.Cl` [Example 37, [3-(4′,5′-Difluoro-2′-methoxy-biphenyl-4-yloxymethyl)-benzylamino]-acetic acid], for which the EC50 amounted to 4900 nM and the “GS SC200” value worked out at 0.38 µM.

As for `O=C(O)C1CCS(=O)(=O)N1Cc1ccc(F)c(COc2ccc(-c3ccc(F)cc3F)cc2)c1` (stereo not shown) [Example 41, 2-[3-(2′,4′-Difluoro-biphenyl-4-yloxymethyl)-4-fluoro-benzyl]-1,1-dioxo-1lambda*6*-isothiazolidine-3-carboxylic acid], the EC50 amounted to 150 nM and the “GS SC200” value amounted to 0.07 µM.

For `O=C(O)C1CCS(=O)(=O)N1Cc1cc(COc2ccc(-c3ccc(F)cc3F)cc2)ccc1F` (stereo not shown) [Example 42, 2-[5-(2′,4′-Difluoro-biphenyl-4-yloxymethyl)-2-fluoro-benzyl]-1,1-dioxo-1lambda*6*-isothiazolidine-3-carboxylic acid], the EC50 was 180 nM and the “GS SC200” value is 0.06 µM.

With `COc1cc(F)c(F)cc1-c1ccc(OCc2cccc(CN3[C@@H](C(=O)O)CCS3(=O)=O)c2)cc1` [Example 44, (R)-2-[3-(4′,5′-Difluoro-2′-methoxy-biphenyl-4-yloxymethyl)-benzyl]-1,1-dioxo-1lambda*6*-isothiazolidine-3-carboxylic acid], a half-maximal effect (EC50) was put at 380 nM and the “GS SC200” value came out at 0.09 µM.

For the molecule `COc1cc(F)c(F)cc1-c1ccc(OCc2cccc(CN3[C@H](C(=O)O)CCS3(=O)=O)c2)cc1` [Example 45, (S)-2-[3-(4′,5′-Difluoro-2′-methoxy-biphenyl-4-yloxymethyl)-benzyl]-1,1-dioxo-1lambda*6*-isothiazolidine-3-carboxylic acid], the midpoint of the response, the EC50, lay at 120 nM and the “GS SC200” value came out at 0.02 µM.

Consider `O=C(O)[C@@H]1CCS(=O)(=O)N1Cc1cccc(COc2ccc(-c3cc(F)c(F)cc3F)cc2)c1` [Example 46, (S)-1,1-Dioxo-2-[3-(2′,4′,5′-trifluoro-biphenyl-4-yloxymethyl)-benzyl]-1lambda*6*-isothiazolidine-3-carboxylic acid], for which the 50% effective concentration (EC50) stood at 90 nM and the “GS SC200” value turned out to be 0.01 µM.

In the case of `O=C(O)[C@H]1CCS(=O)(=O)N1Cc1cccc(COc2ccc(-c3cc(F)c(F)cc3F)cc2)c1` [Example 47, (R)-1,1-Dioxo-2-[3-(2′,4′,5′-trifluoro-biphenyl-4-yloxymethyl)-benzyl]-1lambda*6*-isothiazolidine-3-carboxylic acid], it took 1820 nM to reach a half-maximal effect (EC50) and the “GS SC200” value came to 0.62 µM.

Regarding `Cc1cc(F)c(F)cc1-c1ccc(OCc2cccc(CN3[C@H](C(=O)O)CCS3(=O)=O)c2)cc1` [Example 48, (S)-2-[3-(4′,5′-Difluoro-2′-methyl-biphenyl-4-yloxymethyl)-benzyl]-1,1-dioxo-1lambda*6*-isothiazolidine-3-carboxylic acid], the EC50 is 110 nM and the “GS SC200” value is 0.01 µM.

For the molecule `Cc1cc(F)c(F)cc1-c1ccc(OCc2cccc(CN3[C@@H](C(=O)O)CCS3(=O)=O)c2)cc1` [Example 49, (R)-2-[3-(4′,5′-Difluoro-2′-methyl-biphenyl-4-yloxymethyl)-benzyl]-1,1-dioxo-1lambda*6*-isothiazolidine-3-carboxylic acid], the EC50 was determined as 890 nM and the “GS SC200” value was found to be 0.35 µM.

Consider `O=C(O)[C@H]1CCS(=O)(=O)N1Cc1cccc(COc2ccc(-c3cc(F)c(F)cc3Cl)cc2)c1` [Example 50, (R)-2-[3-(2′-Chloro-4′,5′-difluoro-biphenyl-4-yloxymethyl)-benzyl]-1,1-dioxo-1lambda*6*-isothiazolidine-3-carboxylic acid], for which the EC50 is 840 nM and the “GS SC200” value was found to be 0.42 µM.

For `O=C(O)[C@@H]1CCS(=O)(=O)N1Cc1cccc(COc2ccc(-c3cc(F)c(F)cc3Cl)cc2)c1` [Example 51, (S)-2-[3-(2′-Chloro-4′,5′-difluoro-biphenyl-4-yloxymethyl)-benzyl]-1,1-dioxo-1lambda*6*-isothiazolidine-3-carboxylic acid], the midpoint of the response, the EC50, lay at 100 nM and the “GS SC200” value came out at 0.03 µM.

Take `COc1cc(F)c(F)cc1-c1ccc(OCc2cccc(CN3C(=O)CC[C@H]3C(=O)O)c2)cc1` [Example 52, (S)-1-[3-(4′,5′-Difluoro-2′-methoxy-biphenyl-4-yloxymethyl)-benzyl]-5-oxo-pyrrolidine-2-carboxylic acid]: the concentration giving a half-maximal response (EC50) was 120 nM and the “GS SC200” value amounted to 0.02 µM.

For `O=C(O)[C@@H]1CCC(=O)N1Cc1cccc(COc2ccc(-c3cc(F)c(F)cc3F)cc2)c1` [Example 53, (S)-5-Oxo-1-[3-(2′,4′,5′-trifluoro-biphenyl-4-yloxymethyl)-benzyl]-pyrrolidine-2-carboxylic acid], the EC50 came out at 130 nM and the “GS SC200” value was found to be 0.03 µM.

Turning to `O=C(O)C(F)(F)F.O=C(O)[C@@H]1CCCN1Cc1cccc(COc2ccc(-c3ccc(F)cc3F)cc2)c1` [Example 54, (S)-1-[3-(2′,4′-Difluoro-biphenyl-4-yloxymethyl)-benzyl]-pyrrolidine-2-carboxylic acid; trifluoro-acetic acid salt], it took 3710 nM to reach a half-maximal effect (EC50) and the “GS SC200” value was determined as 0.90 µM.

Regarding `COc1cc(F)c(F)cc1-c1ccc(OCc2cccc(CN3[C@@H](C(=O)O)CCCS3(=O)=O)c2)cc1` [Example 55, (R)-2-[3-(4′,5′-Difluoro-2′-methoxy-biphenyl-4-yloxymethyl)-benzyl]-1,1-dioxo-1lambda*6*-[1,2]thiazinane-3-carboxylic acid], the EC50 amounted to 330 nM and the “GS SC200” value was 0.16 µM.

Regarding `COc1cc(F)c(F)cc1-c1ccc(OCc2cccc(CN3[C@H](C(=O)O)CCCS3(=O)=O)c2)cc1` [Example 56, (S)-2-[3-(4′,5′-Difluoro-2′-methoxy-biphenyl-4-yloxymethyl)-benzyl]-1,1-dioxo-1lambda*6*-[1,2]thiazinane-3-carboxylic acid], the EC50 is 110 nM and the “GS SC200” value was 0.04 µM.

For the molecule `O=C(O)[C@H]1CCCS(=O)(=O)N1Cc1cccc(COc2ccc(-c3cc(F)c(F)cc3F)cc2)c1` [Example 57, (R)-1,1-Dioxo-2-[3-(2′,4′,5′-trifluoro-biphenyl-4-yloxymethyl)-benzyl]-1lambda*6*-[1,2]thiazinane-3-carboxylic acid], a half-maximal response (EC50) required 2340 nM and the “GS SC200” value was determined as 1.22 µM.

Turning to `O=C(O)[C@@H]1CCCS(=O)(=O)N1Cc1cccc(COc2ccc(-c3cc(F)c(F)cc3F)cc2)c1` [Example 58, (S)-1,1-Dioxo-2-[3-(2′,4′,5′-trifluoro-biphenyl-4-yloxymethyl)-benzyl]-1lambda*6*-[1,2]thiazinane-3-carboxylic acid], it took 60 nM to reach a half-maximal effect (EC50) and the “GS SC200” value was 0.04 µM.

Turning to `O=C(O)[C@H]1CCS(=O)(=O)N1Cc1csc(COc2ccc(-c3cc(F)c(F)cc3F)cc2)n1` [Example 59, (R)-1,1-Dioxo-2-[2-(2′,4′,5′-trifluoro-biphenyl-4-yloxymethyl)-thiazol-4-ylmethyl]-1lambda*V-isothiazolidine-3-carboxylic acid], a half-maximal effect (EC50) was put at 16600 nM and the “GS SC200” value was 6.06 µM.
